Assay results taken from US5955501A, “Protein kinase C modulators O” (priority 1995, dated 1999).

Tested on: diacylglycerol/phorboid-type binding sites in mouse skin and in purified preparations of protein kinase C isotypes
Experiment: not given
Conditions: Dunn and Blumberg; Ryves et al. 1991; cited from earlier work

Compound | selectivity factor in dissociation constant among the different binding sites
CC1=C[C@H]2[C@@]3(O)[C@H](C)C[C@]4(OC(=O)Cc5ccccc5)[C@H]([C@@H]3C=C(CO)C[C@]2(O)C1=O)C4(C)C [12-deoxyphorbol 13-phenylacetate] | 10-1000
CC1=C[C@H]2[C@@]3(O)[C@H](C)C[C@]4(OC(=O)C(C)C)[C@H]([C@@H]3C=C(CO)C[C@]2(O)C1=O)C4(C)C [12-deoxyphorbol 13-isobutyrate] | 10-1000
thymeleatoxin | 10-1000
CCCC(=O)O[C@@H]1[C@@H](C)[C@@]2(O)[C@@H](C=C(CO)C[C@]3(O)C(=O)C(C)=C[C@@H]23)[C@@H]2C(C)(C)[C@]12OC(=O)CCC [phorbol 12,13-dibutyrate] | 10-1000

Tested on: HIV
Experiment: Anti-HIV activity in HIV-infected human peripheral blood lymphocytes (supernatant viral RNA and p24 core protein)
Format: cell-based
Conditions: Human immunodeficiency virus 1, Lymphocyte, read-out: percent inhibition of viral RNA production
Experimental: Human peripheral blood lymphocytes were isolated from the buffy coat fractions of blood donations. The lymphocytes were then stimulated with 5 μg/ml of phytohemagglutinin for 48 hours. Prior to infection with HIV, the lymphocytes were washed and resuspended in mitogen-free medium. On day 0 the cells were infected with HIV and were cultured for four days in the presence or absence of graded concentrations of 20-deoxy-20-chlorophorbol 12,13-bis[(2',4'-difluorophenyl)acetate]. On days 3 and 4 the supernatant levels of total viral RNA and viral core protein p24 were determined at each drug concentration and dose-response curves were used to determine the concentration of drug giving 50% inhibition of production of viral RNA and of p24 core protein. At four days these ED50 values were less than 100 pM for both RNA and p24.
(§1) In a manner similar to Example 111, the anti-HIV ED50 values for RNA [drug concentration is in brackets] for the following diterpenoid compounds were determined from dose-response curves or by estimation from one or more experimental drug concentrations.
as §1, with “indolactam-type” for “diterpenoid”, “concentrations, data giving percent inhibition of viral RNA production at selected concentrations appear in parentheses:” for “concentrations.”
as §1, with “diacylglycero-type” for “diterpenoid”, “concentrations; data giving percent inhibition of viral RNA production at selected concentrations appear in parentheses: […]” for “concentrations.”

Compound | inhibition at 10 µM [%]
CNC(=O)OC[C@@H]1Cc2c[nH]c3cccc(c23)N(C)[C@@H](C(C)C)C(=O)N1 (relative stereo) [rac-14-O-(N-methyl)carbamoylindolactam V] | 52

Same assay, conditions: Human immunodeficiency virus 1, Lymphocyte; from dose-response curves or by estimation from one or more experimental drug concentrations; read-out: anti-HIV ED50 for RNA

Compound | EC50 [nM]
CC1=C[C@H]2[C@@]3(O)[C@H](C)[C@@H](OC(=O)Cc4ccc(F)cc4F)[C@]4(OC(=O)Cc5ccc(F)cc5F)[C@H]([C@@H]3C=C(C=NO)C[C@]2(O)C1=NO)C4(C)C [20-deoxy-3-deoxo-3,20-bis(hydroximino)phorbol 12,13-bis[(2',4'-difluorophenyl)acetate]] | 45
CC1=C[C@H]2[C@@]3(O)[C@H](C)[C@@H](OC(=O)Cc4ccc(F)cc4F)[C@]4(OC(=O)Cc5ccc(F)cc5F)[C@H]([C@@H]3C=C(CSCC(O)CO)C[C@]2(O)C1=O)C4(C)C (stereo partly shown) [20-deoxy-20-(2',3'-dihydroxypropylthio)phorbol 12,13-bis[(2',4'-difluorophenyl)acetate]] | 3000
CC1=C[C@H]2[C@@]3(O)[C@H](C)[C@@H](OC(=O)Cc4c(F)c(F)c(F)c(F)c4F)[C@]4(OC(=O)Cc5c(F)c(F)c(F)c(F)c5F)[C@H]([C@@H]3C=C(CF)C[C@]2(O)C1=O)C4(C)C [20-deoxy-20-fluorophorbol 12,13-bis[(pentafluorophenyl)acetate]] | 1
CCCCCCCCCCCCCC(=O)O[C@@H]1[C@@H](C)[C@@]2(O)[C@@H](C=C(COC(=O)Nc3ccc(F)c([N+](=O)[O-])c3)C[C@]3(O)C(=O)C(C)=C[C@@H]23)[C@@H]2C(C)(C)[C@]12OC(C)=O [phorbol 12-myristate 13-acetate 20-(4'-fluoro-3'-nitrophenyl)carbamate] | 4000
CCCSCC1=C[C@H]2[C@@H]3C(C)(C)[C@]3(OC(=O)Cc3ccc(F)cc3F)[C@H](OC(=O)Cc3ccc(F)cc3F)[C@@H](C)[C@]2(O)[C@@H]2C=C(C)C(=O)[C@@]2(O)C1 [20-deoxy-20-propylthiophorbol 12,13-bis[(2',4'-difluorophenyl)acetate]] | 10
CC1=C[C@H]2[C@@]3(O)[C@H](C)[C@@H](OC(=O)Cc4ccc(F)cc4F)[C@]4(OC(=O)Cc5ccc(F)cc5F)[C@H]([C@@H]3C=C(CN)C[C@]2(O)C1=O)C4(C)C [20-deoxy-20-aminophorbol 12,13-bis[(2',4'-difluorophenyl)acetate]] | 100

Same assay, conditions: at 10 μM

Compound | percent inhibition of viral RNA production [%]
CC(C)C1C(=O)NC(C(=O)OCC(O)CO)Cc2c[nH]c3cccc(c23)N1C (stereo not shown) [9-deshydroxymethyl-9-(2',3'-dihydroxy)propyloxycarbonylindolactam V] | 20
9-Deshydroxymethyl-9-[N-(2',3'-dihydroxy)propyl]carboxamidoindolactam V | 22
